Consider two compounds from ChEMBL document CHEMBL3108747, “Synthesis and evaluation of novel cyclic Peptide inhibitors of lysine-specific demethylase 1” (ACS Med Chem Lett, 2014).

One assay is described as follows: cells. Conditions: Homo sapiens, Calu-6, 72 h.
Another assay has as its system MCF7. The experiment in a line: cells. Conditions: Homo sapiens, MCF7, 72 h.

Description for MCF7: Cytotoxicity against human MCF7 cells assessed as cell viability after 72 hrs by MTS assay

Turning to `CSCC[C@H](NC(=O)[C@@H](NC(=O)[C@H](CCCNC(=N)N)NC(=O)[C@H](C)N)[C@@H](C)O)C(=O)N[C@H]1CCCCNC(=O)CC[C@@H](C(=O)N[C@H](C(=O)NCC(=O)NCC(=O)N[C@@H](CCCCN)C(=O)N[C@@H](C)C(=O)N2CCC[C@H]2C(=O)N[C@@H](CCCNC(=N)N)C(=O)N[C@@H](CCCCN)C(=O)N[C@@H](CCC(N)=O)C(=O)N[C@@H](CC(C)C)C(=O)N[C@@H](C)C(N)=O)[C@@H](C)O)NC(=O)[C@H](CCCCN)NC(=O)[C@H](CCCNC(=N)N)NC(=O)[C@H](C)NC(=O)[C@H]([C@@H](C)O)NC1=O`, the IC50 (in general, the concentration that gives 50% inhibition) turned out to be 125 µM in “cells” and 157 µM in the assay with MCF7.
The compound `N=C(NCCCNCCCCCCCNCCCNC(=N)NC(=N)NCCC(c1ccccc1)c1ccccc1)NC(=N)NCCC(c1ccccc1)c1ccccc1` registered an IC50 in “cells” of 10.9 µM.
